Source: patent publication US10329305B2, “Amorphous solid form of a BET protein inhibitor” (Incyte Corporation, priority 2015, dated 2019)
≈ marks a conversion by molar mass, not a printed value.

Legend:
Type in all cases: physicochemical
[1] = Formulation of amorphous Compound 1-(S): solubility in vehicles; conditions: for solubility: aqueous with cosolvent or surfactant or cyclodextrin, thermodynamic from solid
Description: Amorphous Compound 1-(S) was formulated as described in the table below. Table 2 indicates the target concentration, final pH, solubility, and some observation of the resulting formulations.

[2] = Stability of amorphous Compound 1-(S) under elevated temperature and humidity (Karl-Fischer water content, HPLC/UV purity, XRPD); conditions: for Solid Form (XRPD) / Purity 220 nm / Purity 254 nm / Water content: open vial; for Purity 220 nm / Purity 254 nm: HPLC/UV; for Water content: Karl-Fischer
Experimental: Table 1 indicates the conditions/time to which the amorphous form was subjected and provides the measured water content (Karl-Fischer analysis) and purity (by HPLC/UV). The HPLC/UV instrument was Agilent HPLC 1100 with an Agilent Zorbax SB-C18, 3.5 μm, 4.6×150 mm column. The HPLC conditions were as follows: column temperature: 40° C.; mobile phase A (MPA): 0.05% (v/v) trifluoroacetic acid (TFA) in water; mobile phase B (MPB): 0.05% (v/v) TFA in acetonitrile; and flow rate: 1 mL/min.
The gradient conditions were as follows: […]

[3] = Glass transition temperature by modulated DSC (MDSC); conditions: ramp rate 2° C./min, 10-150° C.
Experimental: The glass transition temperature (Tg) was determined to be 105.8° C. by modulated DSC (MDSC) using TA Instruments Differential Scanning calorimetry, Model Q2000 with autosampler. The MDSC instrument conditions were as follows: modulation temperature amplitude: ±1° C.; modulation: 60 second; ramp rate: 2° C./min; temperature range: 10-150° C.; Tzero aluminum sample pan and lid; and nitrogen gas flow at 50 mL/min.

Observations ([1]; 0.5% MC in 50 mM citrate, pH 3.0, target concentration 0.5 mg/mL): solution | Observations ([1]; 0.5% MC in 50 mM citrate, pH 3.0, target concentration 2.5 mg/mL): suspension | Observations ([1]; 0.5% MC in water, target concentration 0.5 mg/mL): solution | Observations ([1]; 0.5% MC in water, target concentration 2.5 mg/mL): suspension | Observations ([1]; 10% TPGS in 50 mM citrate, pH 3.0, target concentration 2.5 mg/mL): solution | solubility ([1]; 0.5% MC in 50 mM citrate, pH 3.0, target concentration 0.5 mg/mL, final pH 3.00): > 500 µg/mL | solubility ([1]; 0.5% MC in 50 mM citrate, pH 3.0, target concentration 2.5 mg/mL, final pH 3.03): 1150 µg/mL (≈ 3300 µM) | solubility ([1]; 0.5% MC in water, target concentration 0.5 mg/mL, final pH 6.76): > 500 µg/mL | solubility ([1]; 0.5% MC in water, target concentration 2.5 mg/mL, final pH 7.87): 842 µg/mL (≈ 2420 µM) | solubility ([1]; 10% TPGS in 50 mM citrate, pH 3.0, target concentration 2.5 mg/mL, final pH 3.07): > 2500 µg/mL | Solid Form (XRPD) ([2]; 40° C./75% RH, 0 weeks): Amorphous | Purity 220 nm ([2]; 40° C./75% RH, 0 weeks): 98.22% | Purity 254 nm ([2]; 40° C./75% RH, 0 weeks): 97.10% | Water content ([2]; 40° C./75% RH, 0 weeks): 1.67% | Purity 220 nm ([2]; 40° C./75% RH, 1 week): 98.22% | Purity 254 nm ([2]; 40° C./75% RH, 1 week): 97.10% | Water content ([2]; 40° C./75% RH, 1 week): 3.39% | Solid Form (XRPD) ([2]; 40° C./75% RH, 2 weeks): Amorphous | Purity 220 nm ([2]; 40° C./75% RH, 2 weeks): 98.18% | Purity 254 nm ([2]; 40° C./75% RH, 2 weeks): 97.10% | Water content ([2]; 40° C./75% RH, 2 weeks): 2.64% | Solid Form (XRPD) ([2]; 50° C., 0 weeks): Amorphous | Purity 220 nm ([2]; 50° C., 0 weeks): 98.22% | Purity 254 nm ([2]; 50° C., 0 weeks): 97.10% | Water content ([2]; 50° C., 0 weeks): 1.67% | Purity 220 nm ([2]; 50° C., 1 week): 98.12% | Purity 254 nm ([2]; 50° C., 1 week): 97.11% | Water content ([2]; 50° C., 1 week): 0.69% | Solid Form (XRPD) ([2]; 50° C., 2 weeks): Amorphous | Purity 220 nm ([2]; 50° C., 2 weeks): 98.23% | Purity 254 nm ([2]; 50° C., 2 weeks): 97.11% | Water content ([2]; 50° C., 2 weeks): 0.43% | physical stability ([2]; elevated temperature and humidity): physically stable | glass transition temperature (Tg) [3]: 105.8 °C
SMILES: Cc1noc(C)c1-c1ccc2[nH]c(=O)n3c2c1OC[C@@H]3c1ccccn1 [Amorphous Compound 1-(S), (4S)-7-(3,5-dimethylisoxazol-4-yl)-4-pyridin-2-yl-4,5-dihydroimidazo[1,5,4-de][1,4]benzoxazin-2(1H)-one]
